# Results taken from US20200306333A1, “COMPOSITION FOR PREVENTING OR TREATING MUSCLE ATROPHY COMPRISING LYCII RADICIS CORTEX” (Industry-University Cooperation Foundation Hanyang …, priority 2019, published 2020).
# Assays:
# Assay type in all cases: cell-based, mouse
# Conditions in all cases: dexamethasone 1 μM
# [1] = test system: atrogin-1/MAFbx; assay: Western blotting of atrogin-1/MAFbx in C2C12 myotubes
# From the text: (§1) Dexamethasone induces muscle atrophy by inhibiting muscle synthesis and inducing protein degradation. The effect of preventing and improving muscle atrophy of the lycii radicis cortex extract was investigated by inducing muscle atrophy by treating the differentiation-induced C2C12 cells of Example 2-1 with dexamethasone and then treating the muscle atrophy-induced cells with the lycii radicis cortex extract. Detailed experimental conditions are as follows.
# (§2) (1) Control: The differentiated C2C12 cells were treated only with DMEM/high glucose supplemented with 1% penicillin for 48 hours.
# (§3) (2) Negative control: The C2C12 cells were treated with DMEM/high glucose supplemented with 1% penicillin and 1 μM dexamethasone for 48 hours.
# (§4) (3) Control+lycii radicis cortex extract: The cells were treated with 30 μg/mL of the lycii radicis cortex extract for 48 hours under the same condition as the control of (1).
# (§5) (4) Negative control+lycii radicis cortex extract: The cells were treated with 30 μg/mL of the lycii radicis cortex extract for 48 hours under the same condition as the negative control of (2). […]
# [2] = test system: MuRF-1; assay: Western blotting of MuRF-1 in C2C12 myotubes
# From the text: as §1, §2, §3, §4, §5
# [3] = test system: C2C12 myotubes; assay: Diameter (thickness) of C2C12 myotubes, dexamethasone-induced muscle atrophy
# Protocol: C2C12 mouse myoblasts acquired from the Korean Collection for Type Cultures of the Korea Research Institute of Bioscience and Biotechnology were induced to divide for a total of 6 times (3 times×2 days). After the division was completed sufficiently, the C2C12 cells were seeded onto a 12-well plate and then divided for 2 days. As a division medium, HyClone™ DMEM/high glucose supplemented with 10% FBS (fetal bovine serum) and 1% penicillin was used.
# When each well of the 12-well plate reached 90% confluency, the cells were treated with a differentiation medium (HyClone™ DMEM/high glucose supplemented with 2% HS (horse serum) and 1% penicillin). The differentiation medium was replaced every 2 days, and the treatment was performed for 6 days. Then, the differentiation-induced C2C12 myotubes were treated with HyClone™ supplemented with 1% penicillin for 24 hours and then subjected to the following experiment.
# Dexamethasone induces muscle atrophy by inhibiting muscle synthesis and inducing protein degradation. […]
# After treating the control groups and test groups for 48 hours in Example 2-2, the cells were imaged using the automated cell imaging system JuLi™ Stage and the thickness of the imaged cells was measured using the cell processing program Image J, with 50 cells per group.
smiles,measurement,setting,value
C[C@@H]1C[C@H]2[C@@H]3CCC4=CC(=O)C=C[C@]4(C)[C@@]3(F)[C@@H](O)C[C@]2(C)[C@@]1(O)C(=O)CO [dexamethasone],increase of activity of atrogin-1/MAFbx as compared to the control group,[1],3.404 fold
same,Atrogin-1/MAFbx vs. GAPDH,"[1]; 48 hours, Control = 100",340.3945
same,increase of activity of MuRF-1 as compared to the control group,[2],3.513 fold
same,MuRF-1 vs. GAPDH,"[2]; 48 hours, Control = 100",351.2904
same,Average thickness (μm) of 50 cells,"[3]; 48 hours, C2C12 myotubes",7.5933 μm
same,decrease in thickness as compared to the control group,[3]; p<0.005,30.54%
